The text below walks through data of patent US20020123648A1, “Aqueous stable lysine solution” (AJINOMOTO CO., INC., priority 1999, published 2002).

For data set [1] the following is noted: storage at 50° C. for 6 weeks; cited from earlier work.
Data set [2] can be described thus: Solubility of lysine: suspension stirred 1 week at constant temperature, lysine analysed in supernatant. Format: physicochemical. As to conditions: 20° C.; chloride ions at a molar ratio of 27% or less to the lysine (hydrochloric acid). Here is the method:
70% lysine base solution obtained under (1) above, 35% hydrochloric acid and deionized water were used in the amounts shown in Table 1 below, respectively, to prepare 7 kinds of solutions. In these solutions, the lysine base crystals obtained under (2) above and the lysine hydrochloride.2H2O crystals obtained under (3) above were suspended respectively in the amounts shown in the same table, and then stirred for 1 week during which the temperature was kept at 20° C.
The crystals were removed from these suspensions, and the concentration of the chloride ions in each of the remaining solutions was analyzed by an ion chromatographic analyzer “Yokokawa IC7000 model”, and the concentration of lysine therein was analyzed by an amino acid analyzer “Hitachi L-8500 model”. […]
The crystals were removed from these suspensions, and the concentration of the chloride ions in each of the resulting solutions (supernatants) was analyzed by the ion chromatographic analyzer “Yokokawa IC7000 model”, and the concentration of the lysine therein was analyzed by the amino acid analyzer “Hitachi L-8500 model”. […]

For data set [3] the following is noted: used in the same molar amount; cited from earlier work.

With `NCCCC[C@H](N)C(=O)O` [crystalline L-lysine, L-lysine], in data set [1], the coloration after storage entry was “evidently colored” and the “formation of by-products after storage” value was “confirmed”. With `NCCCC[C@H](N)C(=O)O` [lysine], the “solubility of lysine compared with the case where the chloride ions are not contained (FIG. 1)” value in data set [2] was “increased”. Regarding `Cl.NCCCC[C@H](N)C(=O)O` [L-lysine monohydrochloride], the “action in a feeding experiment” value in data set [3] is listed as “same action”.
